Values after ≈ are worked out from the molar mass of the structure shown.
How the values were obtained:
Format in all cases: functional
Staphylococcus aureus [1] = assay: Antibacterial activity against methicillin resistant Staphylococcus aureus clinical isolate 003
Enterococcus faecalis [2] = assay: Antibacterial activity against multidrug resistant Enterococcus faecalis ATCC 51299
Staphylococcus aureus [3] = assay: Antibacterial activity against methicillin resistant Staphylococcus aureus clinical isolate 031
Staphylococcus aureus [4] = assay: Antibacterial activity against methicillin resistant Staphylococcus aureus clinical isolate 011
Staphylococcus aureus [5] = assay: Antibacterial activity against Staphylococcus aureus clinical isolate 29
Staphylococcus aureus [6] = assay: Antibacterial activity against Staphylococcus aureus clinical isolate 31
Enterococcus faecalis [7] = assay: Antibacterial activity against Enterococcus faecalis clinical isolate 7
Enterococcus faecalis [8] = assay: Antibacterial activity against Enterococcus faecalis clinical isolate 13

Compound | MIC (Staphylococcus aureus [1]) | MIC (Enterococcus faecalis [2]) | MIC (Staphylococcus aureus [3]) | MIC (Staphylococcus aureus [4]) | MIC (Staphylococcus aureus [5]) | MIC (Staphylococcus aureus [6]) | MIC (Enterococcus faecalis [7]) | MIC (Enterococcus faecalis [8])
CCCCCCc1c(-c2ccc(OCCCCN(CC)CC)cc2OCCCCN(CC)CC)oc2cc(OC)cc(O)c2c1=O | 2 mg/L (≈ 3.13 µM) | 4 mg/L (≈ 6.26 µM) | 2 mg/L (≈ 3.13 µM) | 2 mg/L (≈ 3.13 µM) | 2 mg/L (≈ 3.13 µM) | 1 mg/L (≈ 1.57 µM) | 4 mg/L (≈ 6.26 µM) | 2 mg/L (≈ 3.13 µM)
CCCCCCc1c(-c2ccc(OCCCCNCc3ccc(F)cc3)cc2OCCCCNCc2ccc(F)cc2)oc2cc(OC)cc(O)c2c1=O | 16 mg/L (≈ 21.5 µM) | 16 mg/L (≈ 21.5 µM) | 16 mg/L (≈ 21.5 µM) | 16 mg/L (≈ 21.5 µM) | 16 mg/L (≈ 21.5 µM) | 8 mg/L (≈ 10.8 µM) | 32 mg/L (≈ 43.1 µM) | 8 mg/L (≈ 10.8 µM)
CCCCCCc1c(-c2ccc(OCCCCNCc3ccc(Cl)cc3)cc2OCCCCNCc2ccc(Cl)cc2)oc2cc(OC)cc(O)c2c1=O | 32 mg/L (≈ 41.2 µM) | 32 mg/L (≈ 41.2 µM) | 32 mg/L (≈ 41.2 µM) | 16 mg/L (≈ 20.6 µM) | 32 mg/L (≈ 41.2 µM) | 16 mg/L (≈ 20.6 µM) | 32 mg/L (≈ 41.2 µM) | 32 mg/L (≈ 41.2 µM)
CCCCCCc1c(-c2ccc(OCCCCNC3CCCCC3)cc2OCCCCNC2CCCCC2)oc2cc(OC)cc(O)c2c1=O | 1 mg/L (≈ 1.45 µM) | 2 mg/L (≈ 2.89 µM) | 4 mg/L (≈ 5.79 µM) | 2 mg/L (≈ 2.89 µM) | 1 mg/L (≈ 1.45 µM) | 2 mg/L (≈ 2.89 µM) | 1 mg/L (≈ 1.45 µM) | 1 mg/L (≈ 1.45 µM)
CCCCCCc1c(-c2ccc(OCCCCCCN(C)C)cc2OCCCCCCN(C)C)oc2cc(OC)cc(O)c2c1=O | 2 mg/L (≈ 3.13 µM) | 4 mg/L (≈ 6.26 µM) | 2 mg/L (≈ 3.13 µM) | 4 mg/L (≈ 6.26 µM) | 2 mg/L (≈ 3.13 µM) | 2 mg/L (≈ 3.13 µM) | 4 mg/L (≈ 6.26 µM) | 1 mg/L (≈ 1.57 µM)
CCCCCCc1c(-c2ccc(OCCCCNCCCCCCCCN)cc2OCCCCNCCCCCCCCN)oc2cc(OC)cc(O)c2c1=O | 0.5 mg/L (≈ 0.64 µM) | 1 mg/L (≈ 1.28 µM) | 1 mg/L (≈ 1.28 µM) | 1 mg/L (≈ 1.28 µM) | 1 mg/L (≈ 1.28 µM) | 0.5 mg/L (≈ 0.64 µM) | 1 mg/L (≈ 1.28 µM) | 1 mg/L (≈ 1.28 µM)
CCCCCCc1c(-c2ccc(OCCCCN3CCCC(C)C3)cc2OCCCCN2CCCC(C)C2)oc2cc(OC)cc(O)c2c1=O (stereo unspecified) | 1 mg/L (≈ 1.45 µM) | 2 mg/L (≈ 2.89 µM) | 2 mg/L (≈ 2.89 µM) | 2 mg/L (≈ 2.89 µM) | 2 mg/L (≈ 2.89 µM) | 2 mg/L (≈ 2.89 µM) | 2 mg/L (≈ 2.89 µM) | 2 mg/L (≈ 2.89 µM)
CCCCCCNCCCCOc1ccc(-c2oc3cc(OC)cc(O)c3c(=O)c2CCCCCC)c(OCCCCNCCCCCC)c1 | 8 mg/L (≈ 11.5 µM) | 64 mg/L (≈ 92.1 µM) | 8 mg/L (≈ 11.5 µM) | 16 mg/L (≈ 23 µM) | 16 mg/L (≈ 23 µM) | 4 mg/L (≈ 5.76 µM) | 32 mg/L (≈ 46 µM) | 64 mg/L (≈ 92.1 µM)
CCCCCCc1c(-c2ccc(OCCN(C)C)cc2OCCN(C)C)oc2cc(OC)cc(O)c2c1=O | 1 mg/L (≈ 1.9 µM) | 4 mg/L (≈ 7.59 µM) | 4 mg/L (≈ 7.59 µM) | 2 mg/L (≈ 3.8 µM) | 1 mg/L (≈ 1.9 µM) | 2 mg/L (≈ 3.8 µM) | 4 mg/L (≈ 7.59 µM) | 2 mg/L (≈ 3.8 µM)
CCCCCCc1c(-c2ccc(OCCCCNCc3ccc(Br)cc3)cc2OCCCCNCc2ccc(Br)cc2)oc2cc(OC)cc(O)c2c1=O | 64 mg/L (≈ 74 µM) | > 64 mg/L | – | 64 mg/L (≈ 74 µM) | > 64 mg/L | 64 mg/L (≈ 74 µM) | > 64 mg/L | > 64 mg/L
CC(C)=CCCC1=C[C@@H](c2c(O)cc3oc(-c4ccc(O)cc4O)cc(=O)c3c2O)[C@H](C(=O)c2ccc(O)cc2O)[C@@H](c2ccc(O)cc2O)C1 | 5 mg/L (≈ 7.22 µM) | 10 mg/L (≈ 14.4 µM) | – | – | – | – | – | –
CCCCCCc1c(-c2ccc(OCCCCN3CCCCC3)cc2OCCCCN2CCCCC2)oc2cc(OC)cc(O)c2c1=O | 2 mg/L (≈ 3.02 µM) | 2 mg/L (≈ 3.02 µM) | 2 mg/L (≈ 3.02 µM) | 1 mg/L (≈ 1.51 µM) | 2 mg/L (≈ 3.02 µM) | 1 mg/L (≈ 1.51 µM) | 2 mg/L (≈ 3.02 µM) | 1 mg/L (≈ 1.51 µM)
CCCCCc1c(-c2ccc(OC)cc2OC)oc2cc(OC)cc(OC)c2c1=O | > 64 mg/L | > 64 mg/L | – | – | – | – | – | –
O=c1cc(-c2ccc(O)cc2O)oc2cc(O)cc(O)c12 [NORARTOCARPETIN] | > 64 mg/L | > 64 mg/L | – | – | – | – | – | –
CCCc1c(-c2ccc(O)cc2O)oc2cc(O)cc(O)c2c1=O | 64 mg/L (≈ 195 µM) | > 64 mg/L | – | – | – | – | – | –
COc1cc(O)c2c(=O)c(CCC/C=C(\C)CCC=C(C)C)c(-c3ccc(O)cc3O)oc2c1 | 16 mg/L (≈ 34.4 µM) | 32 mg/L (≈ 68.9 µM) | – | – | – | – | – | –
CCCc1c(-c2ccc(O)cc2O)oc2cc(OC)cc(O)c2c1=O | 32 mg/L (≈ 93.5 µM) | 64 mg/L (≈ 187 µM) | – | – | – | – | – | –
CCCCCCc1c(-c2ccc(OCC(=O)CN[C@H](CCCNC(=N)N)C(N)=O)cc2OCC(=O)CN[C@H](CCCNC(=N)N)C(N)=O)oc2cc(OC)cc(O)c2c1=O | 8 mg/L (≈ 9.54 µM) | > 64 mg/L | 8 mg/L (≈ 9.54 µM) | 32 mg/L (≈ 38.1 µM) | 32 mg/L (≈ 38.1 µM) | 8 mg/L (≈ 9.54 µM) | > 64 mg/L | > 64 mg/L
C=CCc1c(-c2ccc(O)cc2O)oc2cc(O)cc(O)c2c1=O | 64 mg/L (≈ 196 µM) | > 64 mg/L | – | – | – | – | – | –

Compound | MIC (Staphylococcus aureus [1]) | MIC (Enterococcus faecalis [2]) | MIC (Staphylococcus aureus [3]) | MIC (Staphylococcus aureus [4]) | MIC (Staphylococcus aureus [5]) | MIC (Staphylococcus aureus [6]) | MIC (Enterococcus faecalis [7]) | MIC (Enterococcus faecalis [8])
CCCCCCCCc1c(-c2ccc(OC)cc2OC)oc2cc(OC)cc(OC)c2c1=O | > 64 mg/L | > 64 mg/L | – | – | – | – | – | –
CCCCc1c(-c2ccc(O)cc2O)oc2cc(O)cc(O)c2c1=O | 32 mg/L (≈ 93.5 µM) | 32 mg/L (≈ 93.5 µM) | – | – | – | – | – | –
CCCCCCc1c(-c2ccc(OCCCCNCc3ccc(C(F)(F)F)cc3)cc2OCCCCNCc2ccc(C(F)(F)F)cc2)oc2cc(OC)cc(O)c2c1=O | 16 mg/L (≈ 19 µM) | 16 mg/L (≈ 19 µM) | 8 mg/L (≈ 9.49 µM) | 8 mg/L (≈ 9.49 µM) | 16 mg/L (≈ 19 µM) | 8 mg/L (≈ 9.49 µM) | 32 mg/L (≈ 38 µM) | 8 mg/L (≈ 9.49 µM)
COc1cc(O)c2c(=O)cc(-c3ccc(O)cc3O)oc2c1 [ARTOCARPETIN] | > 64 mg/L | > 64 mg/L | – | – | – | – | – | –
CCCCCCCCCCc1c(-c2ccc(O)cc2O)oc2cc(OC)cc(O)c2c1=O | 16 mg/L (≈ 36.3 µM) | 16 mg/L (≈ 36.3 µM) | – | – | – | – | – | –
CCCCCCc1c(-c2ccc(OC)cc2OC)oc2cc(OC)cc(OC)c2c1=O | > 64 mg/L | > 64 mg/L | – | – | – | – | – | –
COc1cc(O)c2c(=O)c(CCCCc3ccccc3)c(-c3ccc(O)cc3O)oc2c1 | 8 mg/L (≈ 18.5 µM) | 16 mg/L (≈ 37 µM) | – | – | – | – | – | –
CCCCCCc1c(-c2ccc(OCCCCNCCc3ccccc3)cc2OCCCCNCCc2ccccc2)oc2cc(OC)cc(O)c2c1=O | 4 mg/L (≈ 5.44 µM) | 4 mg/L (≈ 5.44 µM) | 4 mg/L (≈ 5.44 µM) | 4 mg/L (≈ 5.44 µM) | 8 mg/L (≈ 10.9 µM) | 4 mg/L (≈ 5.44 µM) | 8 mg/L (≈ 10.9 µM) | 4 mg/L (≈ 5.44 µM)
CCc1c(-c2ccc(O)cc2O)oc2cc(OC)cc(O)c2c1=O | > 64 mg/L | 64 mg/L (≈ 195 µM) | – | – | – | – | – | –
O=c1c(CCCCc2ccccc2)c(-c2ccc(O)cc2O)oc2cc(O)cc(O)c12 | 16 mg/L (≈ 38.2 µM) | 32 mg/L (≈ 76.5 µM) | – | – | – | – | – | –
C=CCc1c(-c2ccc(O)cc2O)oc2cc(OC)cc(O)c2c1=O | 32 mg/L (≈ 94 µM) | 64 mg/L (≈ 188 µM) | – | – | – | – | – | –
CCCCCCc1c(-c2ccc(OCCCCNCCC)cc2OCCCCNCCC)oc2cc(OC)cc(O)c2c1=O | 2 mg/L (≈ 3.27 µM) | 2 mg/L (≈ 3.27 µM) | 2 mg/L (≈ 3.27 µM) | 2 mg/L (≈ 3.27 µM) | 2 mg/L (≈ 3.27 µM) | 2 mg/L (≈ 3.27 µM) | 2 mg/L (≈ 3.27 µM) | 2 mg/L (≈ 3.27 µM)
CCCCCCc1c(-c2ccc(OCCCCNCC)cc2OCCCCNCC)oc2cc(OC)cc(O)c2c1=O | 1 mg/L (≈ 1.72 µM) | 2 mg/L (≈ 3.43 µM) | 2 mg/L (≈ 3.43 µM) | 2 mg/L (≈ 3.43 µM) | 2 mg/L (≈ 3.43 µM) | 1 mg/L (≈ 1.72 µM) | 2 mg/L (≈ 3.43 µM) | 1 mg/L (≈ 1.72 µM)
CCCCCCCCCCCCc1c(-c2ccc(OC)cc2OC)oc2cc(OC)cc(OC)c2c1=O | > 64 mg/L | > 64 mg/L | – | – | – | – | – | –
CCCCCc1c(-c2ccc(O)cc2O)oc2cc(OC)cc(O)c2c1=O | 8 mg/L (≈ 21.6 µM) | 16 mg/L (≈ 43.2 µM) | – | – | – | – | – | –
COc1ccc(-c2oc3cc(OC)cc(OC)c3c(=O)c2CCCCc2ccccc2)c(OC)c1 | > 64 mg/L | > 64 mg/L | – | – | – | – | – | –
CCCCCCCCCCCCc1c(-c2ccc(O)cc2O)oc2cc(OC)cc(O)c2c1=O | 16 mg/L (≈ 34.1 µM) | 32 mg/L (≈ 68.3 µM) | – | – | – | – | – | –
COc1ccc(-c2oc3cc(OC)cc(OC)c3c(=O)c2CCC=C(C)C)c(OC)c1 | > 64 mg/L | > 64 mg/L | – | – | – | – | – | –
CCc1c(-c2ccc(OC)cc2OC)oc2cc(OC)cc(OC)c2c1=O | > 64 mg/L | > 64 mg/L | – | – | – | – | – | –

— ChEMBL document CHEMBL5512659, “Structure optimizing of flavonoids against both MRSA and VRE” (Eur J Med Chem, 2024)
